Measured values published in US4285858A, “Vasopressin analogs” (Mt. Sinai School of Medicine of the City University of N.Y., priority 1979, dated 1981).
Where a SMILES comes first, the peptide text is derived from it. Bridges are numbered along the chain shown (N, C = ends). [ ]: non-standard residue; d: D form. Mpa = O=C(O)CCS

Key:
F-VIII and PA = conditions: mammals; literature; cited from earlier work
Factor VIII [1] = test: Factor VIII classical clotting assay (F-VIII(C)) on blood of dogs after intravenous injection; format: in vivo; conditions: dog, i.v., pre-injection blood = 100%; for F-VIII 30' (c): 30 minutes; for F-VIII 60' (c): 60 minutes; for F-VIII 120' (c): 120 minutes
Protocol: (§1) K., Mulder, J. L., Kidney Internat. 8:292,1975. The increase in Factor VIII after administration were analyzed in male canine citrated plasma. The Factor VIII were estimated by both the classical clotting assay (F-VIII(C)) and by radioimmunoassay (F-VIII(RIA)), both described in […]., Cort, J. H., Cash, J. D., Brit. H. Haematol. 41:437, 1979. […] The intravenous or subcutaneous doses would be in the range of 0.02 to 1.0 μg/kg. The intranasal dose range would be ten times the former dose. […] The compounds from Examples 4-8 were tested by intravenously injecting the compounds in physiological saline into a normal dog which was anesthetized using sodium pentothal. Blood samples were withdrawn from each dog after 30, 60 and 120 minutes and tested. […] The F-VIII factor level was also determined by radioimmunoassay(RIA). The results of these tests are reported in Table I. Desmopressin (10 μg/kg) was used as a reference injection peptide.

Factor VIII [2] = test: Factor VIII radioimmunoassay (F-VIII(RIA)) on blood of dogs after intravenous injection; format: in vivo; conditions: dog, i.v.; for F-VIII 30' (RIA): 30 minutes; for F-VIII 60' (RIA): 60 minutes; for F-VIII 120' (RIA): 120 minutes
Protocol: as §1

anesthetized rats [3] = test: Antidiuretic effect by intravenous injection into anesthetized rats; format: in vivo, rat; conditions: for Antidiuretic Potencies (peak): rats, mean
Protocol: (§2) The vasopressin analogs of this invention were tested for antidiuretic and pressor effects by intravenous injection into anesthetized rats using techniques described in Cort, J. H., Schuck, O., Stribrna, J. Skopkova, J., Jost. K., Mulder, J. L., Kidney Internat. 8:292,1975. The increase in Factor VIII after administration were analyzed in male canine citrated plasma. The Factor VIII were estimated by both the classical clotting assay (F-VIII(C)) and by radioimmunoassay (F-VIII(RIA)), both described in Prowse, C. V., Sas, G., Gader, A. M. A., Cort, J. H., Cash, J. D., Brit. H. Haematol. 41:437, 1979. The vasopressin analogs are suitable for administration to mammals by intravenous or subcutaneous injection containing 100 μg to 1 mg peptide/ml. The intravenous or subcutaneous doses would be in the range of 0.02 to 1.0 μg/kg. The intranasal dose range would be ten times the former dose.
(§3) The vasopressin analogs were injected intravenously into normal male dogs anesthetized with sodium pentothal. Blood was withdrawn from each dog after 30, 60 and 120 minutes and analyzed for F-VIII. Rats were also rested for antidiuretic and pressor activity due to the vasopressin analogs of this invention.

anesthetized rats [4] = test: Pressor effect by intravenous injection into anesthetized rats; format: in vivo, rat; conditions: for Pressor Potencies (peak): rats, mean
Protocol: as §2, §3

F-VIII = conditions: cited from earlier work
[5] = 5 μg/kg, hemophiliac dog plasma = 0%

Compound | effect on blood levels of F-VIII and PA (F-VIII and PA) | F-VIII 30' (c) (Factor VIII [1]; 10 μg/kg) | F-VIII 60' (c) (Factor VIII [1]; 10 μg/kg) | F-VIII 120' (c) (Factor VIII [1]; 10 μg/kg) | F-VIII 30' (RIA) (Factor VIII [2]; 10 μg/kg) | F-VIII 60' (RIA) (Factor VIII [2]; 10 μg/kg) | F-VIII 120' (RIA) (Factor VIII [2]; 10 μg/kg) | Antidiuretic Potencies (peak) (anesthetized rats [3]) | Pressor Potencies (peak) (anesthetized rats [4]) | other results
CNCC(O)c1ccc(O)c(O)c1 (stereo not drawn) [adrenaline] | can increase the blood levels of both PA and F-VIII |  |  |  |  |  |  |  |  | 
NC(=O)CC[C@@H]1NC(=O)[C@H](Cc2ccccc2)NC(=O)[C@H](Cc2ccc(O)cc2)NC(=O)CCSSC[C@@H](C(=O)N2CCC[C@H]2C(=O)N[C@H](CCCN=C(N)N)C(=O)NCC(N)=O)NC(=O)[C@H](CC(N)=O)NC1=O [Desmopressin, 1-desamino-[8-D-ARG]-vasopressin, reference compound] | highly potent and prolonged effects on F-VIII and PA release | 220% | 250% | 210% | 126% | 134% | 164% | 1100 IU/mg | 0.15 IU/mg | antidiuretic activity (anesthetized rats [3]): more than 1000 IU/mg; pressor activity (anesthetized rats [4]): less than 0.2 IU/mg; effect on low F-VIII levels in patients (F-VIII; hemophilia A and B, von Willebrand's disease, literature): increases low levels of F-VIII toward normal; antidiuretic side effect in clinical use (F-VIII; human, in vivo): undesired water retention by the patients
C[C@H](NC(=O)[C@@H](CCCNC(=N)N)NC(=O)[C@@H]1CCCN1C(=O)[C@@H]1CSSCCC(=O)N[C@@H](Cc2ccc(O)cc2)C(=O)N[C@@H](Cc2ccccc2)C(=O)N[C@@H](CCC(N)=O)C(=O)N[C@@H](CC(N)=O)C(=O)N1)C(N)=O [Example 8, (1-desamino-[8-D-Arg, 9-Ala-NH2]arginine)-vasopressin] ([Mpa]YFQNCP[dR]A-NH2; disulfide 1-6) |  | 155% | 150% | 140% | 120% | 145% | 155% | 2.23 IU/mg | 0.09 IU/mg | 
C[C@@H](NC(=O)[C@H](CCCNC(=N)N)NC(=O)[C@@H]1CCCN1C(=O)[C@@H]1CSSCCC(=O)N[C@@H](Cc2ccc(O)cc2)C(=O)N[C@@H](Cc2ccccc2)C(=O)N[C@@H](CCC(N)=O)C(=O)N[C@@H](CC(N)=O)C(=O)N1)C(N)=O [Example 4, 1-Desamino-[9-D-Ala-NH]-arginine-vasopressin] ([Mpa]YFQNCPR[dA]-NH2; disulfide 1-6) |  | 230% | 250% | 240% | 124% | 132% | 163% | 1.8 IU/mg | 0.15 IU/mg | F-VIII 30' (c) (Factor VIII [1]; [5]): 120%; F-VIII 60' (c) (Factor VIII [1]; 5 μg/kg): 160%; F-VIII 120' (c) (Factor VIII [1]; 5 μg/kg): 170%; F-VIII 30' (RIA) (Factor VIII [2]; 5 μg/kg): 115%; F-VIII 60' (RIA) (Factor VIII [2]; 5 μg/kg): 125%; F-VIII 120' (RIA) (Factor VIII [2]; 5 μg/kg): 130%
arginine-vasotocin | far less active |  |  |  |  |  |  |  |  | 
(1-desamino-6-monocarba[9-D-Ala-NH2 ]-arginine)-vasopressin [Example 7] |  | 240% | 255% | 266% | 125% | 165% | 180% | 1.9 IU/mg | 0.18 IU/mg | F-VIII 30' (c) (Factor VIII [1]; [5]): 145%; F-VIII 60' (c) (Factor VIII [1]; 5 μg/kg): 190%; F-VIII 120' (c) (Factor VIII [1]; 5 μg/kg): 210%; F-VIII 30' (RIA) (Factor VIII [2]; 5 μg/kg): 140%; F-VIII 60' (RIA) (Factor VIII [2]; 5 μg/kg): 150%; F-VIII 120' (RIA) (Factor VIII [2]; 5 μg/kg): 155%
CC[C@H](C)[C@@H]1NC(=O)[C@H](Cc2ccc(O)cc2)NC(=O)[C@@H](N)CSSC[C@@H](C(=O)N2CCC[C@H]2C(=O)N[C@@H](CC(C)C)C(=O)NCC(N)=O)NC(=O)[C@H](CC(N)=O)NC(=O)[C@H](CCC(N)=O)NC1=O [oxytocin] | no effect on increasing F-VIII and PA in blood |  |  |  |  |  |  |  |  | 
NC(=O)CC[C@@H]1NC(=O)[C@H](Cc2ccccc2)NC(=O)[C@H](Cc2ccc(O)cc2)NC(=O)[C@@H](N)CSSC[C@@H](C(=O)N2CCC[C@H]2C(=O)N[C@@H](CCCN=C(N)N)C(=O)NCC(N)=O)NC(=O)[C@H](CC(N)=O)NC1=O [vasopressin] | can increase the blood levels of both PA and F-VIII |  |  |  |  |  |  |  |  | 
C[C@@H](NC(=O)[C@H](CCCNC(=N)N)NC(=O)[C@@H]1CCCN1C(=O)[C@@H]1CSSC[C@H](N)C(=O)N[C@@H](Cc2ccc(O)cc2)C(=O)N[C@@H](Cc2ccccc2)C(=O)N[C@@H](CCC(N)=O)C(=O)N[C@@H](CC(N)=O)C(=O)N1)C(N)=O [Example 5, ([9-D-Ala-NH2]-arginine-vasopressin] |  | 225% | 128% | 115% | 115% | 110% | 115% | 1.2 IU/mg | 0.10 IU/mg | F-VIII 30' (c) (Factor VIII [1]; [5]): 115%; F-VIII 60' (c) (Factor VIII [1]; 5 μg/kg): 120%; F-VIII 120' (c) (Factor VIII [1]; 5 μg/kg): 105%; F-VIII 30' (RIA) (Factor VIII [2]; 5 μg/kg): 110%; F-VIII 60' (RIA) (Factor VIII [2]; 5 μg/kg): 107%; F-VIII 120' (RIA) (Factor VIII [2]; 5 μg/kg): 98%
angiotensin II (DRVYIHPF; Angiotensin-2; UniProt P01019 25-32, looked up) [other pressor substance] | no effect on increasing F-VIII and PA in blood |  |  |  |  |  |  |  |  | 
1-desamino-6-monocarba-[8 -D-Arg]-vasopressin [dCDAVP] | highly potent and prolonged effects on F-VIII and PA release |  |  |  |  |  |  |  |  | 
